What was measured:
[1] = system: cells dissociated from mouse dorsal root ganglia; experiment: Intracellular calcium in dorsal root ganglion cells of wild-type and FFA3 KO mice; format: cell-based; settings: 5 μM; DRG cells of wild type vs FFA3 KO mice
Experimental: Colonic innervating DRGs were isolated from the T9-L2 region of the spinal cord of C57/BL6 mice and from FFA3 knock-out animals and immediately placed in cold Hanks’ balanced salt solution (HBSS; Sigma-Aldrich). Isolated DRGs were initially digested with HBSS containing L-cysteine (0.3 mg/mL) and papain (2.0 mg/mL) for 20 min at 37 °C. The solution was removed and replaced with HBSS contain collagenase (4.0 mg/mL) and dispase (4.0 mg/mL) (20 min at 37 °C) for further digestion. The collagenase solution was then replaced with DMEM to stop the reaction. The DRGs were finally dissociated by mechanical trituration using a pipette. Dissociated cells were plated on matrigel-coated coverslips and placed in an incubator (37 °C and 5% CO2). Following a 2 h incubation, cells were flooded with 90% DMEM (Sigma) supplemented with 10% fetal calf serum and 1% PenStrep and further incubated overnight at 37 °C and 5% CO2.
To measure intracellular calcium and its potential regulation, dissociated cells on the coverslips were loaded with Fura 8-AM (3 μM) (Stratech Scientific Limited) for 20 min at 37 °C in the dark. […]

[2] = Chemical stability in DMSO (NMR); format: physicochemical
Experimental: To further ensure the suitability of 57 as a tool compound for in vitro studies, the chemical stability was also evaluated in dimethyl sulfoxide (DMSO).

[3] = molecular target: T1, mFFA3 (Mus musculus, UniProt Q3UFD7); experiment: biochemical
T1 sequence (Q3UFD7 1-319): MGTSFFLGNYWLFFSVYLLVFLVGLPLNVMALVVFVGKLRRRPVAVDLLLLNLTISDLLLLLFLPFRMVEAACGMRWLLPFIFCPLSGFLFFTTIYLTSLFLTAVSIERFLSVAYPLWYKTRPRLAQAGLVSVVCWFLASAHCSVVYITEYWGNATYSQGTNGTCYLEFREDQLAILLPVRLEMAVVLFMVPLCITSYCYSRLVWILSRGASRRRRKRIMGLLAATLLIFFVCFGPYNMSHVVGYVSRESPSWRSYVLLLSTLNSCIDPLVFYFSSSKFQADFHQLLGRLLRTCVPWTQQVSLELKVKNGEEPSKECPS
Experimental: Reactions were initiated with the addition of [^35S]GTPγS at 50 nCi per tube; reactions were terminated after 1 h of incubation at 25 °C by rapid filtration through GF/C glass filters using a 24-well Brandel cell harvester (Alpha Biotech, Glasgow, UK). Unbound radioligand was removed from filters by washing three times with ice-cold wash buffer (50 mM Tris–HCl, pH 7.4, and 10 mM MgCl2), and [^35S]GTPγS binding was determined by liquid scintillation spectrometry.

[4] = molecular target: T2, hFFA3 R71A (Homo sapiens, UniProt O14843, R71A); experiment: Potency at FFA3 mutant R71A; format: cell-based
T2 sequence (O14843 1-346 R71A): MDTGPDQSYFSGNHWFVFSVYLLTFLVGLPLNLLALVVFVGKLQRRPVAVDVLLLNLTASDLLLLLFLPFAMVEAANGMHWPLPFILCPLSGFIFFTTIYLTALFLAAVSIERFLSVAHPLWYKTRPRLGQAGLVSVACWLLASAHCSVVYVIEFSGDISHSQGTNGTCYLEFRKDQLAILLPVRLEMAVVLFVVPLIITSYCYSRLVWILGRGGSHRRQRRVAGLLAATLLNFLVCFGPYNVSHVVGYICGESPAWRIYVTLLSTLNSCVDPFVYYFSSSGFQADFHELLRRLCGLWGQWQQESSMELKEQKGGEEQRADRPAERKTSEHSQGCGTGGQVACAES
Experimental: The previously published compound 1 was not affected by mutation of either R185A or R258A in the orthosteric binding site, and the compounds were therefore believed to be allosteric modulators. […] After the publication of the FFA1 crystal structure in complex with an allosteric agonist located in the TM region close to the intracellular site,[32] a homology model of hFFA3 was constructed using Modeller. […] Thus, additional docking of (R)-1 in this site were performed to find poses where Q131, but not R126, show a central role in binding. […] The narrow binding cavity around the core scaffold is in agreement with the restrained SAR observed for this series and the furan moiety pointing out of the binding cavity might explain the flexibility in substituents at this site (Figure 3c,d). Although Q131A impacts the potency of (R)-1 with high significance, the magnitude of the effect is lower than what would be generally expected for the removal of a hydrogen bond interaction; thus, additional studies are required to confirm the proposed binding site.

[5] = system: FFA3 R258A; parameters: method as in PMID 24870406; settings: orthosteric binding site; cited from earlier work
[6] = system: FFA3 R185A; parameters: method as in PMID 24870406; settings: orthosteric binding site; cited from earlier work

With `CCCC1C(C(=O)Nc2cc(Cl)ccc2Cl)=C(C)NC2=C1C(=O)CCC2` (centres unmarked) [Compound 57, N-(2,5-Dichlorophenyl)-2-methyl-5-oxo-4-propyl-1,4,5,6,7,8-hexahydroquinoline-3-carboxamide] the “elevation of intracellular calcium levels” value [1] was “large elevation in intracellular calcium levels in wild type but not FFA3 KO cells”, the “chemical stability in DMSO” value ([2]; 4 °C, after 1 and 30 days, NMR) was “complete stability” and the “chemical stability in DMSO” value ([2]; rt, not protected from light, 7 days) was “fully stable”. For the same molecule, the “chemical stability in DMSO” value ([2]; rt, not protected from light, 30 days) was “minor decomposition” and the EC50 [3] was 2 µM.
For `CC1=C(C(=O)Nc2ccccc2C)C(c2ccco2)C2=C(CCCC2=O)N1` (centres unmarked) [Compound 1, 4-(Furan-2-yl)-2-methyl-5-oxo-N-(o-tolyl)-1,4,5,6,7,8-hexahydroquinoline-3-carboxamide, reference compound], the “effect of mutation R71A on potency” value [4] is listed as “did not affect”, the “effect of mutation R258A” value [5] is listed as “not affected” and the “effect of mutation R185A” value [6] is listed as “not affected”.

— article PMC7307922 (Journal of Medicinal Chemistry, 2020)
